Experimental data as given in ChEMBL document CHEMBL6109046, “Recent advances in developing targeted protein degraders” (Eur J Med Chem, 2025).
pIC50, pKi: −log10 of the molar value.

What was measured:
[1] = PROTAC activity at SMARCA2/VHL in human MV4-11 cells assessed as protein degradation incubated for 18 hrs by Western blot analysis; assay type: cell-based; settings: MV4-11, 18 h
[2] = target: Protein cereblon/Cyclin-dependent kinase 9 (Homo sapiens, UniProt P50750+Q96SW2); assay: PROTAC activity at CRBN/CDK9 in human MV4-11 cells assessed as induction of CDK9 degradation measured for 3 days by Western blot analysis; assay type: cell-based
Protein cereblon/Cyclin-dependent kinase 9, sequence (P50750 whole entry): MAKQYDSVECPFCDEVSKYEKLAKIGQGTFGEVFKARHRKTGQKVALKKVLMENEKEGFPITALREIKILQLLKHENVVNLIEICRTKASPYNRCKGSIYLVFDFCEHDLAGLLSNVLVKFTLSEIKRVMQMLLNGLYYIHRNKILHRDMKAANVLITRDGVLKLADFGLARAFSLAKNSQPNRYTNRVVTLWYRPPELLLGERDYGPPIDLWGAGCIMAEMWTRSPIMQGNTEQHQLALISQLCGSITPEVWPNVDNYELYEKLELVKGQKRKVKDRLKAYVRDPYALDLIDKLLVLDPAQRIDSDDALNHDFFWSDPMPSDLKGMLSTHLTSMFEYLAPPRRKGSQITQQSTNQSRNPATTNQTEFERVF
Protein cereblon/Cyclin-dependent kinase 9, sequence (Q96SW2 whole entry): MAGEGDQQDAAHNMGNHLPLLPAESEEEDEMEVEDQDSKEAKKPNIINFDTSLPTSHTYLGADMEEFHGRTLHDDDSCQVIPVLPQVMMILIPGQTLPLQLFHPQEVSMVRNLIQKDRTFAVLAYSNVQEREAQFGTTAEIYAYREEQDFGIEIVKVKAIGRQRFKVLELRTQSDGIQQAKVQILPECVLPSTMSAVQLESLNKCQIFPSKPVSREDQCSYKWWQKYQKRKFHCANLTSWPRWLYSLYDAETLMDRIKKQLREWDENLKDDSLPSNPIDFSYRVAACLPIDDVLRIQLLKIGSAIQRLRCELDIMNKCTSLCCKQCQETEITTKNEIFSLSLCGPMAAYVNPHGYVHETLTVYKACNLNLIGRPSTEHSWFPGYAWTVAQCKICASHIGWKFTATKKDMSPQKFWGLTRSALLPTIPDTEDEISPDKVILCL

[3] = target: T1, Protein cereblon/Androgen receptor (Homo sapiens, UniProt P10275+Q96SW2); assay: PROTAC activity at AR/CRBN in human LNCaP cells assessed as protein degradation incubated for 24 hrs by Western blot analysis; assay type: cell-based
T1 sequence (P10275 whole entry): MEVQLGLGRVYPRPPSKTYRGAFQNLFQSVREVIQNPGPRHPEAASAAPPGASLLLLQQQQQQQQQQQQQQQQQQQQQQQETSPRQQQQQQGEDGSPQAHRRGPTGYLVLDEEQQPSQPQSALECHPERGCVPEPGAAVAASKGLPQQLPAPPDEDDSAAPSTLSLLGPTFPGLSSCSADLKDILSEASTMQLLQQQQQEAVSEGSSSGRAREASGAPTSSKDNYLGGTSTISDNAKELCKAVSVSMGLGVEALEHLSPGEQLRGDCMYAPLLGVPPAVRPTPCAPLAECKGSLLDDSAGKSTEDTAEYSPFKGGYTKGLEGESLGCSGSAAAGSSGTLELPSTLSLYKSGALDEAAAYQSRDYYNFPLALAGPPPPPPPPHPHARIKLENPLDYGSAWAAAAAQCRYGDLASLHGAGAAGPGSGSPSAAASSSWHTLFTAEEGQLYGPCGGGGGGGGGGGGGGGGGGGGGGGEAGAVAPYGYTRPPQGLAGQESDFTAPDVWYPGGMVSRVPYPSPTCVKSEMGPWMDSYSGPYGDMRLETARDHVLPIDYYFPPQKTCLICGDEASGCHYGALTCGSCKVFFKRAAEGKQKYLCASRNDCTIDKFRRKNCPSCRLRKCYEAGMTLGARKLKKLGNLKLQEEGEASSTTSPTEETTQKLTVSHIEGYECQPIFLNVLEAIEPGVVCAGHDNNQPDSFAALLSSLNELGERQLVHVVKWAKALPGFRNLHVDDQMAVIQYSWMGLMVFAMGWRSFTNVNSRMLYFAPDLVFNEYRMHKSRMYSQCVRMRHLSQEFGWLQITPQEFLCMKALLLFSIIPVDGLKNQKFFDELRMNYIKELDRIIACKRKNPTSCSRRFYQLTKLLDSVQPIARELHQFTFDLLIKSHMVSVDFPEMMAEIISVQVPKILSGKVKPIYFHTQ
T1 sequence (Q96SW2 whole entry): as the sequence (Q96SW2 whole entry) above

[4] = PROTAC activity at VHL/BRD4 in human HeLa cells assessed as degradation of BRD4 incubated for 16 hrs by Western blot analysis; assay type: cell-based
[5] = target: Protein cereblon/Poly [ADP-ribose] polymerase 1 (Homo sapiens, UniProt P09874+Q96SW2); assay: PROTAC activity at CRBN/PARP1 in human MDA-MB-231 cells assessed as degradation of PARP1 measured after 24 hrs by Western blot analysis; assay type: cell-based
Protein cereblon/Poly [ADP-ribose] polymerase 1, sequence (P09874 whole entry): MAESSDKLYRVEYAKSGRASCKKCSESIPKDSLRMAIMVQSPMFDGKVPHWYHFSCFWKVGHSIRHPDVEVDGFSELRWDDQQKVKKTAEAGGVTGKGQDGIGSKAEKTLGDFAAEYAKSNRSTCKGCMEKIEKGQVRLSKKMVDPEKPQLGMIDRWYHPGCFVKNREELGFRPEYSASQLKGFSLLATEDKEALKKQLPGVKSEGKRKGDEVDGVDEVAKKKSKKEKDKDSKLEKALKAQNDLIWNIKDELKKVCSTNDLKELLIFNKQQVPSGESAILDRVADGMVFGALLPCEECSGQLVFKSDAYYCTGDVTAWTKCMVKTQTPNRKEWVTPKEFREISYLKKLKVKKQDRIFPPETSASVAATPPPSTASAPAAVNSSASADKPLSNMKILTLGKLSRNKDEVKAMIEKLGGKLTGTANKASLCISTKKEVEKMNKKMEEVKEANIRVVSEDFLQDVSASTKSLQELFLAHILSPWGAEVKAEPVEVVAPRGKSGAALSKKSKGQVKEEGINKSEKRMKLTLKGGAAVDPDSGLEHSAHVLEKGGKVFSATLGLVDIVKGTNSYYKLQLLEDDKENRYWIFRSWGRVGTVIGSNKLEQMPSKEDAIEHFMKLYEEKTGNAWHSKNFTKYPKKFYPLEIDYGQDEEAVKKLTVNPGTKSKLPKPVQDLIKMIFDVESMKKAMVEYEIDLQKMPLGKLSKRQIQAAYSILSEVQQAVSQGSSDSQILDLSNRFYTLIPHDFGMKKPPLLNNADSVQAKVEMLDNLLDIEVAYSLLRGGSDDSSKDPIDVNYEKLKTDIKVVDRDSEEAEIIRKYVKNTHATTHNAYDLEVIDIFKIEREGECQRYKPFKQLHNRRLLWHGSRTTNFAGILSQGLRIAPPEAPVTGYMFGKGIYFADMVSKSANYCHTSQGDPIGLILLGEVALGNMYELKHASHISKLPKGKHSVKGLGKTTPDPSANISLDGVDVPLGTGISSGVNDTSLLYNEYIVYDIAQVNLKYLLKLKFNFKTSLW
Protein cereblon/Poly [ADP-ribose] polymerase 1, sequence (Q96SW2 whole entry): as the sequence (Q96SW2 whole entry) above

[6] = target: von Hippel-Lindau disease tumor suppressor/Bromodomain-containing protein 9 (Homo sapiens, UniProt Q9H8M2+P40337); assay: PROTAC activity at VHL/BRD9 in human HeLa cells assessed as protein degradation by Western blot analysis; assay type: cell-based
von Hippel-Lindau disease tumor suppressor/Bromodomain-containing protein 9, sequence (Q9H8M2 whole entry): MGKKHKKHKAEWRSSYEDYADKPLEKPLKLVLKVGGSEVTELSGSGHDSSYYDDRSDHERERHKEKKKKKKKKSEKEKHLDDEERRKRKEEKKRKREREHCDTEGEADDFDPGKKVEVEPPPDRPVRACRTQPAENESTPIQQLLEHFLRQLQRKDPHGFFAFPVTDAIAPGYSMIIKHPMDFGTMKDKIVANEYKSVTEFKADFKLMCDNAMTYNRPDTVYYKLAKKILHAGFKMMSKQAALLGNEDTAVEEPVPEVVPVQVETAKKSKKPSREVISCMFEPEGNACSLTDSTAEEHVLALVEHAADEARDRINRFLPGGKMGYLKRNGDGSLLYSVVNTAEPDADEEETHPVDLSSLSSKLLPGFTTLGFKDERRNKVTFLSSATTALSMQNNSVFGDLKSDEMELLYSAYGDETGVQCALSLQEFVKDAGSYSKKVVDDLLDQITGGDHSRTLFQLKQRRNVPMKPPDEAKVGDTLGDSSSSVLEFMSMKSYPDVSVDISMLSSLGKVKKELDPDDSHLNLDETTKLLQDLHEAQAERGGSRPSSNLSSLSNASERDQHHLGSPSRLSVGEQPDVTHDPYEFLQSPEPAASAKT
von Hippel-Lindau disease tumor suppressor/Bromodomain-containing protein 9, sequence (P40337 whole entry): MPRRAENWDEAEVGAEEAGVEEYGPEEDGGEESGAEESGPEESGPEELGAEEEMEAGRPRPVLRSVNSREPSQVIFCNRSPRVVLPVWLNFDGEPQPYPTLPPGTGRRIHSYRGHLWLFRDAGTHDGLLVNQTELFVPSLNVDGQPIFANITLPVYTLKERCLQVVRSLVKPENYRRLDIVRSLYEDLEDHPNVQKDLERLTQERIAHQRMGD

[7] = PROTAC activity at human VHL/BRD4 in human MV4-11 cells assessed as degradation of BRD4 incubated for 16 hrs by Western blot analysis; assay type: cell-based; settings: MV4-11, 16 h
[8] = target: von Hippel-Lindau disease tumor suppressor/Tyrosine-protein kinase BTK; assay: PROTAC activity at VHL/BTK in human THP-1 cells assessed as induction of BTK degradation incubated for 24 hrs by immunoblotting analysis
[9] = target: Proprotein convertase subtilisin/kexin type 9 (Homo sapiens, UniProt Q8NBP7); assay: Binding affinity to PCSK9 (unknown origin) assessed as inhibition constant
Proprotein convertase subtilisin/kexin type 9, sequence (Q8NBP7 31-152 limits assumed): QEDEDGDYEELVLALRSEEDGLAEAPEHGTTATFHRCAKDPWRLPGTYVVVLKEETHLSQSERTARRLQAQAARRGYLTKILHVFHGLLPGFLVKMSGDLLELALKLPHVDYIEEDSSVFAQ
Proprotein convertase subtilisin/kexin type 9, sequence (Q8NBP7 153-692 limits assumed): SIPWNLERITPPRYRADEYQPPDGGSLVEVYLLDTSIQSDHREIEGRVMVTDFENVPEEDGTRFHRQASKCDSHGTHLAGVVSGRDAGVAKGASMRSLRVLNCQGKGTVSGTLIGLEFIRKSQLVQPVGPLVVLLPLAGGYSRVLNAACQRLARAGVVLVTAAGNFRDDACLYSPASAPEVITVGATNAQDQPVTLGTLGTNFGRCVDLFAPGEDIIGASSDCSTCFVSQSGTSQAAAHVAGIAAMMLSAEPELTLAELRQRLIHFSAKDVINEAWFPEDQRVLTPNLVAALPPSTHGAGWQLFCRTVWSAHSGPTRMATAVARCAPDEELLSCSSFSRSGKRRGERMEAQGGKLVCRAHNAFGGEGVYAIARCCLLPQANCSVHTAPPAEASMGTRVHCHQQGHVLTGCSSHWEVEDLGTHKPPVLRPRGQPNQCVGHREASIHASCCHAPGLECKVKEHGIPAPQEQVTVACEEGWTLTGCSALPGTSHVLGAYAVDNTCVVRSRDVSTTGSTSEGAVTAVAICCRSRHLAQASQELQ

[10] = Downregulation of induced PCSK9 expression in HEK293 cells by Western blot analysis; assay type: functional, cell-based; settings: Homo sapiens
[11] = target: von Hippel-Lindau disease tumor suppressor/Bromodomain-containing protein 4 (Homo sapiens, UniProt O60885+P40337); assay: PROTAC activity at human VHL/BRD4 in human HeLa cells assessed as degradation of BRD4 incubated for 24 hrs by Western blot analysis; assay type: cell-based
von Hippel-Lindau disease tumor suppressor/Bromodomain-containing protein 4, sequence (P40337 whole entry, looked up, other chains not shown): as the sequence (P40337 whole entry) above

[12] = target: T1, Protein cereblon/Androgen receptor; assay: PROTAC activity at CRBN/AR in human VCaP cells assessed as induction of AR degradation incubated for 24 hrs by Western blot analysis; assay type: cell-based

## Cc1ncsc1-c1ccc(CNC(=O)[C@@H]2C[C@@H](O)CN2C(=O)[C@@H](NC(=O)C2(F)CC2)C(C)(C)C)c(OCCOc2ccc(CN3CCN(c4cc(-c5ccccc5O)nnc4N)CC3)cc2)c1
[1]
  DC50: 6 nM

## COc1cc(/C=C/C(=O)N2CCC=CC2=O)cc(OC)c1OCCN1CCN(C(=O)CN2CCC(C(=O)Nc3ncc(SCc4ncc(C(C)(C)C)o4)s3)CC2)CC1
[2]
  DC50: 9 nM

## CC1(C)[C@H](NC(=O)c2ccc(OCC(=O)NCCCOCCOCCOCCCN(C(=O)CCl)C(C(=O)NCc3ccccc3)c3ccc(Cl)c(Cl)c3)cc2)C(C)(C)[C@H]1Oc1ccc(C#N)c(Cl)c1 (some centres undefined)
[3]
  DC50: < 10000 nM

## COC(=O)C[C@H]1[C@]2(C)C3=C(C)[C@H](c4ccoc4-c4ccc(C(=O)NCCCNC(=O)C[C@@H]5N=C(c6ccc(Cl)cc6)c6c(sc(C)c6C)-n6c(C)nnc65)cc4)C[C@H]3O[C@@H]2[C@@H]2OC(=O)[C@]3(C)C=CC(=O)[C@@]1(C)[C@@H]23
[4]
  DC50: 36000 nM

## Cc1sc2c(c1C)C(c1ccc(Cl)cc1)=N[C@@H](CC(=O)NCCCCOc1ccc(C3CC(c4ccc(Br)cc4)=NN3C(=O)CCl)cc1)c1nnc(C)n1-2 (some centres undefined)
[4]
  DC50: < 10000 nM

## Cc1sc2c(c1C)C(c1ccc(Cl)cc1)=N[C@@H](CC(=O)NCCCCOc1ccc(Oc3ccc(N(Cc4ccccc4)C(=O)CCl)cc3)cc1)c1nnc(C)n1-2
[4]
  DC50: < 10000 nM

## COc1ccc(C2=N[C@H](c3ccc(Cl)cc3)[C@H](c3ccc(Cl)cc3)N2C(=O)N2CCN(CC(=O)NCCOCCOCCOCCOCCn3cc(-c4ccc(-n5cc6cccc(C(N)=O)c6n5)cc4)nn3)C(=O)C2)c(OC(C)C)c1
[5]
  DC50: < 10000 nM

## Cc1ncsc1-c1ccc([C@H](CC[C@H](C)CCN2CCC(c3ccc4c(c3)n(C3CCCC3)c3nc(=O)c5c(Br)cccc5n43)CC2)NC(=O)[C@@H]2C[C@@H](O)CN2C(=O)[C@@H](NC(=O)C2(F)CC2)C(C)(C)C)cc1
[1]
  DC50: 1 nM

## COc1cc(-c2cn(C)c(=O)c3cnccc23)c(OC)cc1CN1CCC(OCCCCCC(=O)N2CCN(c3ccc4c(NCCN)nc(C5(c6ccc(Cl)cc6)CCCCC5)nc4c3)CC2)CC1
[6]
  DC50: 90 nM

## Cc1sc2c(c1C)C(c1ccc(Cl)cc1)=N[C@H](CC(=O)NCCCn1cc(CNC(=O)c3ccc(S(=O)(=O)N(CC#N)C(=O)CC45CC6CC(CC(C6)C4)C5)cc3)nn1)c1nnc(C)n1-2
[7]
  DC50: 3000 nM

## CN[C@@H](C)C(=O)N[C@H](C(=O)N1Cc2cc(OCCOCCOCCOCCOCCOC(=O)N3CCC[C@H](n4nc(-c5ccc(Oc6ccc(F)cc6F)cc5)c(C(N)=O)c4N)C3)ccc2C[C@@H]1C(=O)NC1CCCc2ccccc21)C(C)(C)C (some centres undefined)
[8]
  DC50: 182 nM

## CCOC(=O)C[C@@H](c1ccc(C)c(CN2C[C@@H](C)Oc3ccccc3S2(=O)=O)c1)c1cc(OCCNC(=O)CNC(=O)C[C@@H]2N=C(c3ccc(Cl)cc3)c3c(sc(C)c3C)-n3c(C)nnc32)c2c(c1)nnn2C
[2]
  DC50: < 500 nM

## CC(C)(C)OC(=O)N=C(NCCC[C@H](NC(=O)OC(C)(C)C)C(=O)NCCOCCOc1cc2c(cc1Oc1ccc(-c3ccc(C(=O)O)cc3)c(F)c1)[C@@](C)(CC(=O)Nc1nccs1)NCC2)NC(=O)OC(C)(C)C
[9]
  pKi: 6.97
[10]
  pIC50: 5.47

## Cc1ncsc1-c1ccc([C@H](C)NC(=O)[C@@H]2C[C@@H](O)CN2C(=O)[C@H](c2cc(N3CCC(CN4CCC(OC5CC(Oc6cc(N7[C@H]8CC[C@H]7CN(c7cc(-c9ccccc9O)nnc7N)C8)ccn6)C5)CC4)CC3)no2)C(C)C)cc1 (some centres undefined)
[1]
  DC50: 0.03 nM

## Cc1sc2c(c1C)C(c1ccc(Cl)cc1)=N[C@@H](CC(=O)NCCCCCCCCCCNC(=O)[C@@]13CCC(C)(C)C[C@@H]1[C@@H]1C(=O)C=C4[C@]5(C)C=C(C#N)C(=O)C(C)(C)[C@H]5CC[C@]4(C)[C@@]1(C)CC3)c1nnc(C)n1-2
[2]
  DC50: < 200 nM

## Cc1sc2c(c1C)C(c1ccc(Cl)cc1)=NC(CC(=O)NCCOCCOCCNC(=O)c1cccc(S(=O)(=O)Nc3ccc(C)c4c(C#N)c[nH]c34)c1)c1nnc(C)n1-2 (centres undefined)
[11]
  DC50: 10800 nM

## Cc1sc2c(c1C)C(c1ccc(Cl)cc1)=N[C@@H](CC(=O)NCCCOCCOCCOCCCNC(=O)COc1c(Br)cc(/C=C3\C(=O)Nc4ccc(I)cc43)cc1Br)c1nnc(C)n1-2 (stereo in doubt)
[7]
  DC50: 900 nM

## COc1cc(O[C@H]2C(C)(C)[C@H](NC(=O)c3ccc(N4CCC(CN5CCN(c6ccc(C(=O)N[C@H]7CCC(=O)NC7=O)c(F)c6)CC5)CC4)cc3)C2(C)C)ccc1C#N [LUXDEGALUTAMIDE]
[12]
  DC50: < 1 nM
